Drawing on patent publication US11427548B2 (Arvinas Operations, Inc., priority 2015, dated 2022), this text covers Dmax and DC50 for 21 molecules.

For assay [1], the target named is T1, Androgen Receptor (Homo sapiens, UniProt P10275+P40337, T878A).
T1 construct: Compounds have been evaluated in this assay in LNCaP and/or VCaP cells utilizing similar protocols; endogenous in cells; host or cells: LNCaP cells
The assay is described as follows: Androgen Receptor ELISA assay (PathScan AR ELISA) in LNCaP cells: AR degradation, Dmax and DC50. It counts as cell-based. The note with it: for DC50: concentration that caused 50% Androgen Receptor degradation. (An ELISA detects its analyte on a solid surface through an enzyme-linked reagent.)

Assay [2] has as its target T2, Androgen Receptor (Homo sapiens, UniProt P10275).
T2 construct: endogenous in cells; host or cells: VCaP cells
T2 sequence (P10275 1-920): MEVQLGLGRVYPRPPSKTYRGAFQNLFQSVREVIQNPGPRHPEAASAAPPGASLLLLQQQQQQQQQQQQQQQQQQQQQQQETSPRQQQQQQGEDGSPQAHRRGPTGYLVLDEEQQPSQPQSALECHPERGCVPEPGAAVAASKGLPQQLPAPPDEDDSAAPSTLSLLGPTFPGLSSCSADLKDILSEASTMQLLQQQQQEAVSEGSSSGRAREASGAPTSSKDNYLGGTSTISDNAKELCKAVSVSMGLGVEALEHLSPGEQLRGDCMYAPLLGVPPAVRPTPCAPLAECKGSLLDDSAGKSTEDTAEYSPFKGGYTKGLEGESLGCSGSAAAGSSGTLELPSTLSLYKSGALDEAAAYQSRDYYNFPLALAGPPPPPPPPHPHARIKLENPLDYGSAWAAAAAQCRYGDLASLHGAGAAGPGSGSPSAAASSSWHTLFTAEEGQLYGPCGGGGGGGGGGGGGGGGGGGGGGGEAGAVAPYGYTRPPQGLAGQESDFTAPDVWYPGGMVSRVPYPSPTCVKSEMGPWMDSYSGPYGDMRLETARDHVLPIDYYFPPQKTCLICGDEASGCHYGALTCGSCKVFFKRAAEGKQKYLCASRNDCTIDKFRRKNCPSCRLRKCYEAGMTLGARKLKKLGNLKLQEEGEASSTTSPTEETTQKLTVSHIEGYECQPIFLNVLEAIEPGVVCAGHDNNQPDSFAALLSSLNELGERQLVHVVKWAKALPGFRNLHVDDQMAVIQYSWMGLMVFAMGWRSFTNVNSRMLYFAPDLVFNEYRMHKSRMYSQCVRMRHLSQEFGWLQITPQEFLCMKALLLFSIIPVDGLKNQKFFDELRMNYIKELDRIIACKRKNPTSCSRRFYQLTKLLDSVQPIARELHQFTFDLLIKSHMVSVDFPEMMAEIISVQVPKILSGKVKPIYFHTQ
Briefly: Androgen Receptor ELISA assay (PathScan AR ELISA) in VCaP cells: AR degradation, Dmax and DC50. It counts as cell-based. An outline of the steps: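 VCaP cells, 30,000/well, grown ≥3 days in phenol red-free RPMI with 5% charcoal-stripped FBS; compound added in 0.1% DMSO with 0.1 nM R1881, 7 half-log doses, 24 h. Lysate AR quantified by PathScan sandwich ELISA, HRP/TMB read at 450 nm, giving DC50 and Dmax.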

[3] abbreviates: highest percentage of Androgen Receptor degradation observed.
Setting [4] is: read-out: VCaP DC50; concentration that caused 50% Androgen Receptor degradation, VCaP cells.
Setting [5] is: highest percentage of Androgen Receptor degradation.

Like-named read-outs stand apart in the source and are kept apart here. A value given as a limit tells only on which side of the number the result lay.

T1 sequence (P10275 whole entry T878A): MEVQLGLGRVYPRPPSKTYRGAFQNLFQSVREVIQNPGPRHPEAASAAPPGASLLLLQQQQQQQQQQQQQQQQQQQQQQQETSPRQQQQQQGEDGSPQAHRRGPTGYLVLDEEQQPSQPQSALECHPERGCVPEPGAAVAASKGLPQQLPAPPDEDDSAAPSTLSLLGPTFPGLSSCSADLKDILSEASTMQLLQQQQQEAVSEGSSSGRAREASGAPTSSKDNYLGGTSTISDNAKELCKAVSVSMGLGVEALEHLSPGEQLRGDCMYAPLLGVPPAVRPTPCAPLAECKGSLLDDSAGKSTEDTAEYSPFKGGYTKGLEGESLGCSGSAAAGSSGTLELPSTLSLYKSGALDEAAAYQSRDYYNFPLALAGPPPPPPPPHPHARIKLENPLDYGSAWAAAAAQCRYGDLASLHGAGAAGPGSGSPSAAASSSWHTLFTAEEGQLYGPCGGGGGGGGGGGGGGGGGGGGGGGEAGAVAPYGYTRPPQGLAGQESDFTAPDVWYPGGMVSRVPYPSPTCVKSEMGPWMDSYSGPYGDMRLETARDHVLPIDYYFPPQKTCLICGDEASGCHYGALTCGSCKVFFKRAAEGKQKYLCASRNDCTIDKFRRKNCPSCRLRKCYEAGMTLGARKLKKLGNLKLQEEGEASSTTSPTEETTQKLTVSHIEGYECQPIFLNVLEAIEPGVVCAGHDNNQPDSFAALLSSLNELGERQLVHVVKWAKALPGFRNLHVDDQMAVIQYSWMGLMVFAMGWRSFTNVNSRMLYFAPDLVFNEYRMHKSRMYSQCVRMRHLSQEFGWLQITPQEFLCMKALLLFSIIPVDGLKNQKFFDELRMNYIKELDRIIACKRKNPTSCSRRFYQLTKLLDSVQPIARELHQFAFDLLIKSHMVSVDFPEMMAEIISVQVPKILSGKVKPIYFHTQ
T1 sequence (P40337 whole entry): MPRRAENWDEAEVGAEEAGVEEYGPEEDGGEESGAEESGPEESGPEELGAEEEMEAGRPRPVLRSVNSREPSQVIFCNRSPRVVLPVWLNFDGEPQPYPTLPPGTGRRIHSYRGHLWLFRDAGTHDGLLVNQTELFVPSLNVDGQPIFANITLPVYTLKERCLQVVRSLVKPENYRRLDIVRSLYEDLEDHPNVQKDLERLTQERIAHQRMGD
T1 sequence (Q15369 whole entry partner): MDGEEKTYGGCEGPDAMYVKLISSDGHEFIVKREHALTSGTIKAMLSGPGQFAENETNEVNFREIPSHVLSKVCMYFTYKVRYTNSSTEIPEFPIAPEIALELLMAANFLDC
T1 sequence (Q15370 whole entry partner): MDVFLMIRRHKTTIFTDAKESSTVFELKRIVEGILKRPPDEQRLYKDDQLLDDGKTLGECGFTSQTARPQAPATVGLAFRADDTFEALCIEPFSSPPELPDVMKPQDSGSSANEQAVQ

Take `Cc1ncsc1-c1ccc(CNC(=O)[C@@H]2C[C@@H](O)CN2C(=O)[C@@H](NC(=O)COCCCOCCCCCOc2ccc(N3C(=S)N(c4cnc(C#N)c(C(F)(F)F)c4)C(=O)C3(C)C)cc2)C(C)(C)C)cc1` [Example 2, (2S,4R)-1-((S)-2-(2-(3-(5-(4-(3-(6-cyano-5-(trifluoromethyl)pyridin-3-yl)-5,5-dimethyl-4-oxo-2-thioxoimidazolidin-1-yl)phenoxy)pentyloxy)propoxy)acetamido)-3,3-dimethylbutanoyl)-4-hydroxy-N-(4-(4-methylthiazol-5-yl)benzyl)pyrrolidine-2-carboxamide]: the Dmax (as a rule, the greatest extent of degradation seen) was more than 71% on Androgen Receptor [1] (setting [3]) and 51 to 70% on Androgen Receptor [2] (VCaP, read-out: VCaP Dmax (%)). Further, the DC50 (commonly the concentration at which degradation of the target reaches its halfway point) at Androgen Receptor [2] (concentration that caused 50% Androgen Receptor degradation, VCaP cells; read-out: VCaP DC50) is less than 50 nM.

For the molecule `Cc1ncsc1-c1ccc([C@H](C)NC(=O)[C@@H]2C[C@@H](O)CN2C(=O)[C@@H](NC(=O)COCCCOCCCCCOc2ccc(N3C(=S)N(c4ccc(C#N)c(C(F)(F)F)c4)C(=O)C3(C)C)cc2)C(C)(C)C)cc1` [Example 4, (2S,4R)-1-[(2S)-2-[2-(3-{[5-(4-{3-[4-cyano-3-(trifluoromethyl)phenyl]-5,5-dimethyl-4-oxo-2-sulfanylideneimidazolidin-1-yl}phenoxy)pentyl]oxy}propoxy)acetamido]-3,3-dimethylbutanoyl]-4-hydroxy-N-[(1S)-1-[4-(4-methyl-1,3-thiazol-5-yl)phenyl]ethyl]pyrrolidine-2-carboxamide], the DC50 at Androgen Receptor [1] and at Androgen Receptor [2] (setting [4]) was less than 50 nM in each case. Further, the Dmax at Androgen Receptor [1] (setting [3]) is more than 71%; at Androgen Receptor [2] (VCaP, read-out: VCaP Dmax (%)), 51 to 70%.

With `Cc1ncsc1-c1ccc(CNC(=O)[C@@H]2C[C@@H](O)CN2C(=O)[C@@H](NC(=O)COCCCOCCCCCOc2ccc(N3C(=S)N(c4ccc(C#N)c(Cl)c4)C(=O)C3(C)C)cc2)C(C)(C)C)cc1` [Example 8], the DC50 at Androgen Receptor [1] and on Androgen Receptor [2] (setting [4]) was less than 50 nM in each case. The maximal degradation (Dmax) is more than 71% at Androgen Receptor [1] (setting [3]) and 51 to 70% at Androgen Receptor [2] (VCaP, read-out: VCaP Dmax (%)).

On to `Cc1ncsc1-c1ccc(CNC(=O)[C@@H]2C[C@@H](O)CN2C(=O)[C@@H](NC(=O)c2ccc(OCCOCCCOc3ccc(N4C(=S)N(c5ccc(C#N)c(C(F)(F)F)c5)C(=O)C4(C)C)cc3)cc2)C(C)(C)C)cc1` [Example 274], for which the DC50 at Androgen Receptor [1] was 51 to 500 nM. In addition, the Dmax at Androgen Receptor [1] (setting [5]) was in the range of 26 to 50%.

On Androgen Receptor [1], `Cc1ncsc1-c1ccc(CNC(=O)[C@@H]2C[C@@H](O)CN2C(=O)[C@@H](NC(=O)c2ccccc2OCCCOc2ccc(N3C(=S)N(c4ccc(C#N)c(C(F)(F)F)c4)C(=O)C3(C)C)cc2)C(C)(C)C)cc1` [Example 275] returned a DC50 of more than 501 nM. Besides, on Androgen Receptor [1] (setting [5]), the Dmax was less than 25%.

Regarding `Cc1ncsc1-c1ccc(CNC(=O)[C@@H]2C[C@@H](O)CN2C(=O)[C@@H](NC(=O)c2ccccc2OCCCCOc2ccc(N3C(=S)N(c4ccc(C#N)c(C(F)(F)F)c4)C(=O)C3(C)C)cc2)C(C)(C)C)cc1` [Example 276], the DC50 on Androgen Receptor [1] is more than 501 nM. Moreover, at Androgen Receptor [1] (setting [5]), the Dmax is less than 25%.

`Cc1ncsc1-c1ccc(CNC(=O)[C@@H]2C[C@@H](O)CN2C(=O)[C@@H](NC(=O)c2cccc(OCCCOc3ccc(N4C(=S)N(c5ccc(C#N)c(C(F)(F)F)c5)C(=O)C4(C)C)cc3)c2)C(C)(C)C)cc1` [Example 277] gave a DC50 on Androgen Receptor [1] of 51 to 500 nM. Moreover, on Androgen Receptor [1] (setting [5]), the maximal degradation (Dmax) is less than 25%.

On to `Cc1ncsc1-c1ccc(CNC(=O)[C@@H]2C[C@@H](O)CN2C(=O)[C@H](C(C)C)N2Cc3ccccc3C2=O)c(OCCCCOCCCOc2ccc(N3C(=S)N(c4ccc(C#N)c(C(F)(F)F)c4)C(=O)C3(C)C)cc2)c1` [Example 279], for which the DC50 on Androgen Receptor [1] is more than 501 nM. Besides, the greatest degradation seen (Dmax) on Androgen Receptor [1] (setting [5]) was 51 to 70%.

With `CC[C@H](NC(C)=O)C(=O)N1C[C@H](O)C[C@H]1C(=O)NCc1ccc(-c2scnc2C)cc1OCCOCCOCCOc1ccc(N2C(=S)N(c3ccc(C#N)c(C(F)(F)F)c3)C(=O)C2(C)C)cc1` [Example 280], the DC50 at Androgen Receptor [1] is more than 501 nM. This molecule also registered a Dmax on Androgen Receptor [1] (setting [5]) of 26 to 50%.

Take `CC(=O)N[C@H](C(=O)N1C[C@H](O)C[C@H]1C(=O)NCc1ccc(-c2scnc2C)cc1OCCOCCOCCOc1ccc(N2C(=S)N(c3ccc(C#N)c(C(F)(F)F)c3)C(=O)C2(C)C)cc1)C(C)C` [Example 281]: at Androgen Receptor [1], the DC50 is more than 501 nM. The maximal degradation (Dmax) at Androgen Receptor [1] (setting [5]) was in the range of 51 to 70%.

At Androgen Receptor [1], `Cc1ncsc1-c1ccc(CNC(=O)[C@@H]2C[C@@H](O)CN2C(=O)[C@@H](NC(=O)c2ccccc2OCCOCCOc2ccc(N3C(=S)N(c4ccc(C#N)c(C(F)(F)F)c4)C(=O)C3(C)C)cc2)C(C)(C)C)cc1` [Example 282] came in with a DC50 of 51 to 500 nM. The molecule further yielded a maximal degradation (Dmax) on Androgen Receptor [1] (setting [5]) of 51 to 70%.

`Cc1ncsc1-c1ccc(CNC(=O)[C@@H]2C[C@@H](O)CN2C(=O)[C@@H](NC(=O)c2cccc(OCCOCCOc3ccc(N4C(=S)N(c5ccc(C#N)c(C(F)(F)F)c5)C(=O)C4(C)C)cc3)c2)C(C)(C)C)cc1` [Example 283]: at Androgen Receptor [1], the DC50 lay within 51 to 500 nM. Moreover, the Dmax on Androgen Receptor [1] (setting [5]) is 51 to 70%.

In turn, `Cc1ncsc1-c1ccc(CNC(=O)[C@@H]2C[C@@H](O)CN2C(=O)[C@@H](NC(=O)c2ccc(OCCCOc3ccc(-c4ccc(N5C(=S)N(c6ccc(C#N)c(C(F)(F)F)c6)C(=O)C5(C)C)cc4)cc3)cc2)C(C)(C)C)cc1` [Example 284] returned a DC50 on Androgen Receptor [1] of 51 to 500 nM. The same molecule gave a Dmax at Androgen Receptor [1] (setting [5]) of 26 to 50%.

On Androgen Receptor [1], `Cc1ncsc1-c1ccc(CNC(=O)[C@@H]2C[C@@H](O)CN2C(=O)[C@@H](NC(=O)c2ccc(OCCCCOc3ccc(-c4ccc(N5C(=S)N(c6ccc(C#N)c(C(F)(F)F)c6)C(=O)C5(C)C)cc4)cc3)cc2)C(C)(C)C)cc1` [Example 285] showed a DC50 of more than 501 nM. This molecule also showed a Dmax on Androgen Receptor [1] (setting [5]) of less than 25%.

Consider `Cc1ncsc1-c1ccc(CNC(=O)[C@@H]2C[C@@H](O)CN2C(=O)[C@@H](NC(=O)c2ccc(OCCOc3ccc(-c4ccc(N5C(=S)N(c6ccc(C#N)c(C(F)(F)F)c6)C(=O)C5(C)C)cc4)cc3)cc2)C(C)(C)C)cc1` [Example 286], for which the DC50 on Androgen Receptor [1] was less than 50 nM. Besides, on Androgen Receptor [1] (setting [5]), the Dmax is 51 to 70%.

Consider `Cc1ncsc1-c1ccc(CNC(=O)[C@@H]2C[C@@H](O)CN2C(=O)[C@@H](NC(=O)c2ccc(C3CCN(CCCCOc4ccc(N5C(=S)N(c6ccc(C#N)c(C(F)(F)F)c6)C(=O)C5(C)C)cc4)CC3)cc2)C(C)(C)C)cc1` [Example 287], for which the DC50 at Androgen Receptor [1] is more than 501 nM. This molecule also returned a Dmax at Androgen Receptor [1] (setting [5]) of 51 to 70%.

On to `Cc1ncsc1-c1ccc(CNC(=O)[C@@H]2C[C@@H](O)CN2C(=O)[C@@H](NC(=O)c2ccc(C3CCN(CCCOc4ccc(N5C(=S)N(c6ccc(C#N)c(C(F)(F)F)c6)C(=O)C5(C)C)cc4)CC3)cc2)C(C)(C)C)cc1` [Example 289], for which the DC50 on Androgen Receptor [1] was more than 501 nM. In addition, on Androgen Receptor [1] (setting [5]), the Dmax is 26 to 50%.

As to `Cc1ncsc1-c1ccc(CNC(=O)[C@@H]2C[C@@H](O)CN2C(=O)[C@@H](NC(=O)COCCCOC2CCN(C(=O)c3ccc(N4C(=S)N(c5ccc(C#N)c(C(F)(F)F)c5)C(=O)C4(C)C)cc3)CC2)C(C)(C)C)cc1` [Example 290], the DC50 on Androgen Receptor [1] is more than 501 nM. On Androgen Receptor [1] (setting [5]), this molecule came in with a Dmax of 51 to 70%.

Turning to `Cc1ncsc1-c1ccc(CNC(=O)[C@@H]2C[C@@H](O)CN2C(=O)[C@@H](NC(=O)c2ccc(OCCOC3CCN(C(=O)c4ccc(N5C(=S)N(c6ccc(C#N)c(C(F)(F)F)c6)C(=O)C5(C)C)cc4)CC3)cc2)C(C)(C)C)cc1` [Example 291], the DC50 at Androgen Receptor [1] was more than 501 nM. For the same molecule, the Dmax on Androgen Receptor [1] (setting [5]) is less than 25%.

`Cc1ncsc1-c1ccc(CNC(=O)[C@@H]2C[C@@H](O)CN2C(=O)[C@H](C(C)C)N2Cc3ccccc3C2=O)c(OCCO[C@@H]2CCC[C@@H]2OCCOc2ccc(N3C(=S)N(c4ccc(C#N)c(C(F)(F)F)c4)C(=O)C3(C)C)cc2)c1` [Example 304] returned a DC50 on Androgen Receptor [1] of 51 to 500 nM. The molecule also came in with a Dmax on Androgen Receptor [1] (setting [5]) of 26 to 50%.

As for `Cc1ncsc1-c1ccc(CNC(=O)[C@@H]2C[C@@H](O)CN2C(=O)[C@@H](NC(=O)CC(=O)CCCOCCCCCOc2ccc(N3C(=S)N(c4ccc(C#N)c(C(F)(F)F)c4)C(=O)C3(C)C)cc2)C(C)(C)C)cc1` [Example 305], at Androgen Receptor [1], the DC50 is 51 to 500 nM. Moreover, at Androgen Receptor [1] (setting [5]), the Dmax lay in the range of 51 to 70%.
